This assay relates to 292921-168-R-J2-PDC KRAS tumor spheroid viability. As to the kind of experiment: Anticancer human tumor 292921-168-R-J2-PDC patient-derived pancreatic carcinoma cell line growth inhibition [KRAS2]. As to conditions: spheroids with HUVEC and MSC; for viability, T/C: stronger effect = lower value. The method, boiled down: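 KRAS-mutant tumor cells were grown as spheroids with HUVEC endothelial cells and human MSCs as stroma. Targeted agents were tested alone and with KRAS pathway inhibitors. Doses started at or near clinical Cmax, or 10 microM, descending half-log.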

[1] abbreviates: curve of first compound, second compound 0.1 µM.
Setting [2] is: curve of first compound, second compound 0.316 µM.
Where [3] appears, read: curve of first compound, second compound 1 µM.
[4] abbreviates: curve of first compound, second compound 3.16 µM.
Setting [5] is: curve of first compound, second compound 10 µM.
[6] abbreviates: second compound 0.1 µM, first compound 0.0316 µM.
The mark [7] stands for this setting: second compound 0.1 µM, first compound 0.1 µM.
Setting [8] is: second compound 0.316 µM, first compound 0.0316 µM.
Where [9] appears, read: second compound 0.316 µM, first compound 0.1 µM.
Where [10] appears, read: second compound 1 µM, first compound 0.0316 µM.
[11] abbreviates: second compound 1 µM, first compound 0.1 µM.
[12] abbreviates: second compound 3.16 µM, first compound 0.0316 µM.
[13] abbreviates: second compound 3.16 µM, first compound 0.1 µM.
The mark [14] stands for this setting: second compound 10 µM, first compound 0.0316 µM.
Where [15] appears, read: second compound 10 µM, first compound 0.1 µM.

pIC50: −log10 of the molar value. “And” between values parts separate entries of the source, which are not always exact repeats. Equal values may be shown once.
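Also: drug exposure lasted seven days after spheroids formed for three days.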
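For viability, T/C in this document: percent of DMSO vehicle control viability which is 100%.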

Consider `COc1cc(Nc2ncc3c(n2)-c2ccc(Cl)cc2C(c2c(F)cccc2OC)=NC3)ccc1C(=O)O` + COc1cc2nc(C)nc(NC(C)c3cc(N)cc(C(F)(F)F)c3)c2cc1OC1CCOC1, for which the negative logarithm of the IC50 (pIC50) reads like this: under setting [1], greater than 7.50; under setting [2], greater than 7.50; under setting [3], greater than 7.50; under setting [4], greater than 7.50; under setting [5], greater than 7.50. In addition, the viability, T/C under setting [6] was 28.8%; the viability, T/C under setting [7] is 23.7%; the viability, T/C (second compound 0.1 µM, first compound 0.316 µM) was 27.9%; the viability, T/C (second compound 0.1 µM, first compound 1 µM) was 25.8%; the viability, T/C (second compound 0.1 µM, first compound 3.16 µM) was 19.4%; the viability, T/C (second compound 0.1 µM, first compound 10 µM) is 16.9%. Besides, the viability, T/C is 26.3% under setting [8]; 21.9% under setting [9]; 27.4% (second compound 0.316 µM, first compound 0.316 µM); 22.1% (second compound 0.316 µM, first compound 1 µM); 22.3% (second compound 0.316 µM, first compound 3.16 µM); 14.9% (second compound 0.316 µM, first compound 10 µM). Moreover, the viability, T/C under setting [10] is 25%; the viability, T/C under setting [11] is 24.5%; the viability, T/C (second compound 1 µM, first compound 0.316 µM) was 25.6%; the viability, T/C (second compound 1 µM, first compound 1 µM) is 23.4%; the viability, T/C (second compound 1 µM, first compound 3.16 µM) was 18.5%; the viability, T/C (second compound 1 µM, first compound 10 µM) is 13.6%. In addition, the viability, T/C is 23.8% under setting [12]; 20.5% under setting [13]; 20.8% (second compound 3.16 µM, first compound 0.316 µM); 22.1% (second compound 3.16 µM, first compound 1 µM); 18.5% (second compound 3.16 µM, first compound 3.16 µM); 14% (second compound 3.16 µM, first compound 10 µM). Also, the viability, T/C reads like this: under setting [14], 15.1%; under setting [15], 11.2%; (second compound 10 µM, first compound 0.316 µM) 11.6%; (second compound 10 µM, first compound 1 µM) 11.9%; (second compound 10 µM, first compound 3.16 µM) 13.6%; (second compound 10 µM, first compound 10 µM) 12.3%.

As for `CC(C)NCC(C(=O)N1CCN(c2ncnc3c2C(C)CC3O)CC1)c1ccc(Cl)cc1` (stereo not drawn), the viability, T/C was 93.8% [middle of 5 runs] (compound 0.0316 µM); 88.5% [middle of 5 runs] (compound 0.1 µM); 83.5% [middle of 5 runs] (compound 0.316 µM); 83.1% [middle of 5 runs] (compound 1 µM); 76.5% [middle of 5 runs] (compound 3.16 µM); 51.1% [middle of 5 runs] (compound 10 µM). The pIC50 (curve of compound) was < 5.00 and 5.01.

Turning to `COc1cc2nccc(Oc3ccc(NC(=O)C4(C(=O)Nc5ccc(F)cc5)CC4)cc3)c2cc1OC`, the viability, T/C was 104% (3×) and 112% and 103% (compound 0.0316 µM); 99.3% [middle of 5 runs] (compound 0.1 µM); 96.6% [middle of 5 runs] (compound 0.316 µM); 33.9% [middle of 5 runs] (compound 3.16 µM); 19.6% [middle of 5 runs] (compound 10 µM). In addition, the IC50 (curve of compound) was 2.1 µM [middle of 5 runs].

Consider `Cn1ncnc1[C@H]1c2n[nH]c(=O)c3cc(F)cc(c23)N[C@@H]1c1ccc(F)cc1` + CNCc1ccccc1-c1csc(C(C)Nc2nc(C)nc3cc(OC)c(OC)cc23)c1, for which the pIC50 under setting [1] is less than 7.00; the pIC50 under setting [2] was less than 7.00; the pIC50 under setting [3] is 7.62; the negative logarithm of the IC50 (pIC50) under setting [4] was greater than 9.50; the pIC50 under setting [5] was greater than 9.50. For the same molecule, the viability, T/C was 87.7% (second compound 0.1 µM, first compound 0.000316 µM); 87.8% (second compound 0.1 µM, first compound 0.001 µM); 84.2% (second compound 0.1 µM, first compound 0.00316 µM); 81.3% (second compound 0.1 µM, first compound 0.01 µM); 75.9% under setting [6]; 63.5% under setting [7]. The viability, T/C (second compound 0.316 µM, first compound 0.000316 µM) was 77.3%; the viability, T/C (second compound 0.316 µM, first compound 0.001 µM) was 84.3%; the viability, T/C (second compound 0.316 µM, first compound 0.00316 µM) was 79.9%; the viability, T/C (second compound 0.316 µM, first compound 0.01 µM) was 69.2%; the viability, T/C under setting [8] is 65.5%; the viability, T/C under setting [9] is 56.9%. Besides, the viability, T/C is 57.3% (second compound 1 µM, first compound 0.000316 µM); 55.7% (second compound 1 µM, first compound 0.001 µM); 57.6% (second compound 1 µM, first compound 0.00316 µM); 52.6% (second compound 1 µM, first compound 0.01 µM); 48.6% under setting [10]; 41.4% under setting [11]. The viability, T/C is 0.07% (second compound 3.16 µM, first compound 0.000316 µM); 0.08% (second compound 3.16 µM, first compound 0.001 µM); 0.08% (second compound 3.16 µM, first compound 0.00316 µM); 0.07% (second compound 3.16 µM, first compound 0.01 µM); 0.08% under setting [12]; 0.13% under setting [13]. Moreover, the viability, T/C runs as follows: (second compound 10 µM, first compound 0.000316 µM) 0.08%; (second compound 10 µM, first compound 0.001 µM) 0.08%; (second compound 10 µM, first compound 0.00316 µM) 0.48%; (second compound 10 µM, first compound 0.01 µM) 0.87%; under setting [14], 0.35%; under setting [15], 0.15%.

Values taken from PubChem BioAssay AID1963870 (Molecular Pharmacology Branch, DTP, NCI, 2024).
